# What was measured:
# Assay type in all cases: biochemical
# Details in all cases: 10 μM ATP, 60 min, ADP-GLO luminescence
# c-MET = c-MET (Homo sapiens, UniProt P08581); assay: Enzymatic assay (ADP-Glo kinase reaction), c-MET
# Summary of the method: (§1)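 For both AXL and c-MET, reactions in tyrosine kinase buffer used 0.2 μg/μL poly(Glu4,Tyr1) and 10 μM ATP with serially diluted inhibitor, 60 min at room temperature. ADP formed was read by ADP-Glo luminescence after 40 min reagent incubation.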
# AXL = molecular target: T1, AXL (Homo sapiens, UniProt P30530); assay: Enzymatic assay (ADP-Glo kinase reaction), AXL
# T1 sequence (P30530 26-894): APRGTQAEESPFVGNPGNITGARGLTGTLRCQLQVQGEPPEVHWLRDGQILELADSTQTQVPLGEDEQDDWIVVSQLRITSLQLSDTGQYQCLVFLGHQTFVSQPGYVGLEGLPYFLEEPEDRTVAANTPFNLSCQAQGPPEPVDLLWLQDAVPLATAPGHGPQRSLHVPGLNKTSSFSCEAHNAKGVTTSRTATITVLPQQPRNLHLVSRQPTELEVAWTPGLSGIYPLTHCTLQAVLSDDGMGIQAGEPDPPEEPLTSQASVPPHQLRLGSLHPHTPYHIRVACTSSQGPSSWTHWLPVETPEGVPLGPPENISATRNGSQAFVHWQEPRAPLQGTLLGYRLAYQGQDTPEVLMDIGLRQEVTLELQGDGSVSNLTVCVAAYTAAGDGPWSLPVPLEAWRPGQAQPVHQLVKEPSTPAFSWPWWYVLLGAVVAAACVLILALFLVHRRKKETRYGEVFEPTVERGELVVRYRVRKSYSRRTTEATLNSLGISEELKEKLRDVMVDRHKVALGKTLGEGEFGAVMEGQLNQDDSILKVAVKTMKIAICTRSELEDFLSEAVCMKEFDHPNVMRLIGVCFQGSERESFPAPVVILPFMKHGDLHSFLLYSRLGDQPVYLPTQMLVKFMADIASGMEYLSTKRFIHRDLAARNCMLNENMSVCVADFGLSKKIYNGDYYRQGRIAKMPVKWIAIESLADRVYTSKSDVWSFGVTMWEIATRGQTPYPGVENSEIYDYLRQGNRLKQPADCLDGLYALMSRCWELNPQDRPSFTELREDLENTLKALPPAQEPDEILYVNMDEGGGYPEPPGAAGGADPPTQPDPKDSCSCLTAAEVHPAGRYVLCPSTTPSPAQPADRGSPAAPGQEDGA
# Summary of the method: as §1
# MER = molecular target: T2, MER (Homo sapiens, UniProt Q12866); assay: Enzymatic assay (ADP-Glo kinase reaction), MER
# T2 sequence (Q12866 21-999): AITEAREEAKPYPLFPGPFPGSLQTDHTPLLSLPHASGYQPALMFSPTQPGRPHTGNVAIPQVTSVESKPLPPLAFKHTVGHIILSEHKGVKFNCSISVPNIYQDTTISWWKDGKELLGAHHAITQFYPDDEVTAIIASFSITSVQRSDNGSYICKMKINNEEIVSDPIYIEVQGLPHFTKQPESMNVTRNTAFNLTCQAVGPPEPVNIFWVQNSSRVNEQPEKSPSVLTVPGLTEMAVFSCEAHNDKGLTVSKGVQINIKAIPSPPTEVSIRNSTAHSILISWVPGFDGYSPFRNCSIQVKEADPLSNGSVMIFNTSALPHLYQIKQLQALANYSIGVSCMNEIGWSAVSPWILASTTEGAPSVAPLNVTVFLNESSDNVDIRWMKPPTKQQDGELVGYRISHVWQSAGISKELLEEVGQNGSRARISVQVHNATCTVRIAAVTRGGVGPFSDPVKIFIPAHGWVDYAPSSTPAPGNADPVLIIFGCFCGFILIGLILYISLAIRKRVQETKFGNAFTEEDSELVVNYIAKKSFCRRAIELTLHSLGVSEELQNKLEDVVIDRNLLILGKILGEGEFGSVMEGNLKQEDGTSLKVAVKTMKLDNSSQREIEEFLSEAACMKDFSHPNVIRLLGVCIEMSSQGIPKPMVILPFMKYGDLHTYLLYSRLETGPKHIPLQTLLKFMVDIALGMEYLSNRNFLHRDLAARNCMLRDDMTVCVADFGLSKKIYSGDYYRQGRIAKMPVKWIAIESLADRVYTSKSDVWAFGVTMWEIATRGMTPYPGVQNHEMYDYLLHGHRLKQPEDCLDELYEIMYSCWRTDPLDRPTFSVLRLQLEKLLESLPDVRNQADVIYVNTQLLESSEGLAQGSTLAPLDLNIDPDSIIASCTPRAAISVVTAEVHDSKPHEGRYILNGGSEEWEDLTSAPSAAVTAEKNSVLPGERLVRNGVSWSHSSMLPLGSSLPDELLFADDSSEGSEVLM
# Summary of the method: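 ADP-Glo luminescence assay of MER in tyrosine kinase buffer with 0.2 μg/μL poly(Glu4,Tyr1) substrate and 10 μM ATP. Serially diluted inhibitor reacted 60 min at room temperature. IC50 taken from luminescence after ADP-Glo and detection steps.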
# c-MET, sequence (P08581 25-1390): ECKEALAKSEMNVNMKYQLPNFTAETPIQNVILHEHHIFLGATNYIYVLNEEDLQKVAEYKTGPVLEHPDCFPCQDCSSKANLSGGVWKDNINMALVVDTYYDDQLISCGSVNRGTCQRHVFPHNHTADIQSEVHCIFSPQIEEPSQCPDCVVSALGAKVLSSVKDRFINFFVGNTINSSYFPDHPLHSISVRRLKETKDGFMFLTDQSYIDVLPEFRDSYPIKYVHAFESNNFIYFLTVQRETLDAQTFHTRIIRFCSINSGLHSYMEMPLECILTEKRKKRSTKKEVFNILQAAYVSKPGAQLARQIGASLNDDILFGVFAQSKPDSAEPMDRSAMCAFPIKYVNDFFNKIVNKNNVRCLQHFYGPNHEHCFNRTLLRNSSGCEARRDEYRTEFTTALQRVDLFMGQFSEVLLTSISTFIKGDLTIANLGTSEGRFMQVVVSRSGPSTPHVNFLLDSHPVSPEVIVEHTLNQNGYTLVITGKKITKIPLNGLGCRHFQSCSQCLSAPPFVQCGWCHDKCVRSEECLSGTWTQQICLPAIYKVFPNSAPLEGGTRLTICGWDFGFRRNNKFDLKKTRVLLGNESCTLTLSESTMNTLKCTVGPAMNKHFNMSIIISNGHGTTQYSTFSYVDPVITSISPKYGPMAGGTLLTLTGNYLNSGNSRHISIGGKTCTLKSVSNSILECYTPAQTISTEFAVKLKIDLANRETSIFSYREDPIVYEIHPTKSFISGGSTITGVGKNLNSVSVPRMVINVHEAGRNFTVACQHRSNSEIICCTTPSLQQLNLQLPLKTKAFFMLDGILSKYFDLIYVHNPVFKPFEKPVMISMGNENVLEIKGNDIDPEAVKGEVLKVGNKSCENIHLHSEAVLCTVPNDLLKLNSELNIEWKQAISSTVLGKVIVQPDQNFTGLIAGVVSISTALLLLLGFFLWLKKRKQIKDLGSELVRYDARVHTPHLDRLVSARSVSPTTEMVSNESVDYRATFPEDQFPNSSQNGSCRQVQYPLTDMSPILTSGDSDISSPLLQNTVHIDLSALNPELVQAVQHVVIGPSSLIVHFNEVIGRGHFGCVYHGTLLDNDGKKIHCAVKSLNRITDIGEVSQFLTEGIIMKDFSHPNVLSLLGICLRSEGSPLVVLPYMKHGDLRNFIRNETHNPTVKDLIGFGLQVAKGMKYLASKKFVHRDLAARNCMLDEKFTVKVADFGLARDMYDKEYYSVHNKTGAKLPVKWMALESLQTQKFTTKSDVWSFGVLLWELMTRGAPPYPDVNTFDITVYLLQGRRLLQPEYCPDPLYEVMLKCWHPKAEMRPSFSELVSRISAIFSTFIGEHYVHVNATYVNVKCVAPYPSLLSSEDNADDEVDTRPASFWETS
IC50 (c-MET),IC50 (AXL),IC50 (MER),Compound
< 1000 nM,< 100 nM,< 100 nM,"CC(C)(C#Cc1c(Oc2ccc(NC(=O)c3c[nH]c(=O)n(-c4ccc(F)cc4)c3=O)cc2F)ccnc1N)N1CCNCC1 [Example 52, N-(4-(2-amino-3-(3-methyl-3-(piperazin-1-yl)but-1-ynyl)pyridin-4-yloxy)-3-fluorophenyl)-3-(4-fluorophenyl)-2,4-dioxo-1,2,3,4-tetrahydropyrimidine-5-carboxamide]"
< 10 nM,< 10 nM,< 10 nM,"COCCN1CCN(C(=O)/C=C/c2c(Oc3ccc(NC(=O)c4cn(C(C)C)c(=O)n(-c5ccc(F)cc5)c4=O)cc3F)ccnc2N)CC1 [Example 4, (E)-N-(4-(2-amino-3-(3-(4-(2-methoxyethyl)piperazin-1-yl)-3-oxoprop-1-enyl)pyridin-4-yloxy)-3-fluorophenyl)-3-(4-fluorophenyl)-1-isopropyl-2,4-dioxo-1,2,3,4-tetrahydropyrimidine-5-carboxamide]"
< 10000 nM,< 1000 nM,< 100 nM,"CN(C)C(=O)Cn1cc(C(=O)Nc2ccc(Oc3ccnc(N)c3C#CCN3CCOCC3)c(F)c2)c(=O)n(-c2ccc(F)cc2)c1=O [Example 34, N-(4-((2-amino-3-(3-morpholinoprop-1-yn-1-yl)pyridin-4-yl)oxy)-3-fluorophenyl)-1-(2-(dimethylamino)-2-oxoethyl)-3-(4-fluorophenyl)-2,4-dioxo-1,2,3,4-tetrahydropyrimidine-5-carboxamide]"
< 10 nM,< 10 nM,< 10 nM,"CC(C)n1cc(C(=O)Nc2ccc(Oc3ccnc(N)c3C#CCN3CCN(C)CC3)c(F)c2)c(=O)n(-c2ccc(F)cc2)c1=O [Example 26, N-(4-(2-amino-3-(3-(4-methylpiperazin-1-yl)prop-1-ynyl)pyridine-4-yloxy)-3-fluorophenyl)-3-(4-fluorophenyl)-1-isopropyl-2,4-dioxo-1,2,3,4-tetrahydropyrimidine-5-carboxamide]"
< 100 nM,< 100 nM,< 100 nM,"Nc1nccc(Oc2ccc(NC(=O)c3c[nH]c(=O)n(-c4ccc(F)cc4)c3=O)cc2F)c1C#CCN1CCOCC1 [Example 51, N-(4-(2-amino-3-(3-morpholinoprop-1-ynyl)pyridin-4-yloxy)-3-fluorophenyl)-3-(4-fluorophenyl)-2,4-dioxo-1,2,3,4-tetrahydropyrimidine-5-carboxamide]"
< 100 nM,< 100 nM,< 100 nM,"Nc1nccc(Oc2ccc(NC(=O)c3cn(C4CCOCC4)c(=O)n(-c4ccc(F)cc4)c3=O)cc2F)c1C#CCN1CCOCC1 [Example 56, N-(4-(2-amino-3-(3-morpholinoprop-1-ynyl)pyridin-4-yloxy)-3-fluorophenyl)-3-(4-fluorophenyl)-2,4-dioxo-1-(tetrahydro-2H-pyran-4-yl)-1,2,3,4-tetrahydropyrimidine-5-carboxamide]"
< 10 nM,< 10 nM,< 10 nM,"COCCN1CCN(CC#Cc2c(Oc3ccc(NC(=O)c4cn(C(C)C)c(=O)n(-c5ccc(F)cc5)c4=O)cc3F)ccnc2N)CC1 [Example 18, N-(4-(2-amino-3-(3-(4-(2-methoxyethyl)piperazin-1-yl)prop-1-ylny)pyridin-4-yloxy)-3-fluorophenyl)-3-(4-fluorophenyl)-1-isopropyl-2,4-dioxo-1,2,3,4-tetrahydropyrimidine-5-carboxamide]"
< 1000 nM,< 10 nM,< 10 nM,"CC(C)n1cc(C(=O)Nc2ccc(Oc3ccnc(N)c3C#CC3CCN(C)CC3)c(F)c2)c(=O)n(-c2ccc(F)cc2)c1=O [Example 23, N-(4-(2-amino-3-((1-methylpiperidin-4-yl)ethynyl)pyridin-4-yloxy)-3-fluorophenyl)-3-(4-fluorophenyl)-1-isopropyl-2,4-dioxo-1,2,3,4-tetrahydropyrimidine-5-carboxamide]"
< 10 nM,< 10 nM,< 10 nM,"CC(C)n1cc(C(=O)Nc2ccc(Oc3ccnc(N)c3C#CC(=O)N3CCNCC3)c(F)c2)c(=O)n(-c2ccc(F)cc2)c1=O [Example 1, N-(4-(2-amino-3-(3-oxo-3-(piperazin-1-yl)prop-1-ynyl)pyridin-4-yloxy)-3-fluorophenyl)-3-(4-fluorophenyl)-1-isopropyl-2,4-dioxo-1,2,3,4-tetrahydropyrimidine-5-carboxamide]"
< 1000 nM,< 10 nM,< 100 nM,"Cn1nc(C(=O)Nc2ccc(Oc3ccnc(N)c3C#CC(C)(C)N3CCNCC3)c(F)c2)c(=O)n(-c2ccc(F)cc2)c1=O [Example 47, N-(4-(2-amino-3-(3-methyl-3-(piperazin-1-yl)but-1-ynyl)pyridin-4-yloxy)-3-fluorophenyl)-4-(4-fluorophenyl)-2-methyl-3,5-dioxo-2,3,4,5-tetrahydro-1,2,4-triazine-6-carboxamide]"
< 1000 nM,< 10000 nM,< 100 nM,"CN(C)C(=O)Cn1cc(C(=O)Nc2ccc(Oc3ccnc(N)c3C#CC(C)(C)N3CCOCC3)c(F)c2)c(=O)n(-c2ccc(F)cc2)c1=O [Example 33, N-(4-((2-amino-3-(3-methyl-3-morpholinobut-1-yn-1-yl)pyridin-4-yl)oxy)-3-fluorophenyl)-1-(2-(dimethylamino)-2-oxoethyl)-3-(4-fluorophenyl)-2,4-dioxo-1,2,3,4-tetrahydropyrimidine-5-carboxamide]"
< 100 nM,< 10 nM,< 100 nM,"CC(C)(C#Cc1c(Oc2ccc(NC(=O)c3c[nH]c(=O)n(-c4ccc(F)cc4)c3=O)cc2F)ccnc1N)N1CCOCC1 [Example 50, N-(4-(2-amino-3-(3-methyl-3-morpholinobut-1-ynyl)pyridin-4-yloxy)-3-fluorophenyl)-3-(4-fluorophenyl)-2,4-dioxo-1,2,3,4-tetrahydropyrimidine-5-carboxamide]"
< 100 nM,< 10 nM,< 10 nM,"C=CCn1cc(C(=O)Nc2ccc(Oc3ccnc(N)c3C#CCN3CCOCC3)c(F)c2)c(=O)n(CC=C)c1=O [Example 67, 1,3-diallyl-N-(4-(2-amino-3-(3-morpholinoprop-1-ynyl)pyridin-4-yloxy)-3-fluorophenyl)-2,4-dioxo-1,2,3,4-tetrahydropyrimidine-5-carboxamide]"
< 100 nM,< 100 nM,< 100 nM,"Cc1nc(Cn2cc(C(=O)Nc3ccc(Oc4ccnc(N)c4C#CC(C)(C)N4CCNCC4)c(F)c3)c(=O)n(-c3ccc(F)cc3)c2=O)cs1 [Example 41, N-(4-((2-amino-3-(3-methyl-3-(piperazin-1-yl)but-1-yn-1-yl)pyridin-4-yl)oxy)-3-fluorophenyl)-3-(4-fluorophenyl)-1-((2-methylthiazol-4-yl)methyl)-2,4-dioxo-1,2,3,4-tetrahydropyrimidine-5-carboxamide]"
< 10 nM,< 10 nM,< 10 nM,COCCN1CCC(C#Cc2c(Oc3ccc(NC(=O)c4cn(C(C)C)c(=O)n(-c5ccc(F)cc5)c4=O)cc3F)ccnc2N)CC1 [Example 16]

# From patent US20250171426A1, “PYRIMIDINEDIONE-BASED COMPOUNDS AS AXL, C-MET, AND MER INHIBITORS AND METHODS OF USE THEREOF” (CMG Pharmaceutical Co., Ltd., priority 2022, published 2025)
